# From paper PMC9617636 (Antiviral Research, 2022)
# Where two headings read alike, the source gives them in different places.
# Tests used:
# SARS-CoV-2 viral RNA = type: cell-based
# B.1.1.7 SARS-CoV-2 = assay: Antiviral assay in Calu3 cells; type: cell-based
# SARS-CoV-2 [1] = assay: Antiviral plaque assay in Vero-E6 cells; type: cell-based
# in vitro [2] = details: African green monkey
# SARS-CoV-2 nucleocapsid = type: cell-based
# in vitro [3] = details: human
# [4] = test system: −1 PRF signal of SARS-CoV-2; type: cell-based
# Influenza A virus (H1N1) = assay: Antiviral activity against Influenza A virus; type: cell-based, Influenza virus A/Netherlands/602/2009
# SARS-CoV-2 [5] = type: cell-based
# HCoV-229e = assay: microbe, parasite or virus in culture; type: cell-based; details: Human coronavirus 229E
# Mucilair tissues = type: cell-based, human; details: MTS assay at 96hpi, 30 μg/tissue
# in vitro [6] = details: dog
# in vitro [7] = details: human; remark: listed apart in the source
# SARS-CoV-2 GFP = type: cell-based
# A549 cells = type: cell-based; details: 600 μM
# Vero-E6 cells = details: listed as of SARS-CoV-2 B.1.1.7 (Alpha)
# [8] = Severe acute respiratory syndrome coronavirus 2, Calu-3, read-out: EC50 (95% CI)
# [9] = Severe acute respiratory syndrome coronavirus 2, Vero C1008, read-out: EC50 (95% CI)
# [10] = Severe acute respiratory syndrome coronavirus 2, Vero C1008, read-out: EC90 (95% CI), SARS-CoV-2 B.1.1.7 (Alpha), Vero-E6
# [11] = CC50, row of SARS-CoV-2 B.1.1.7 (Alpha)
compound,measurement,setting,value
CCNCC1CCN(c2c(F)cc3c(=O)c(C(=O)O)cn(CC)c3c2F)C1 (stereo not shown) [Merafloxacin],viral RNA replication,SARS-CoV-2 viral RNA,inhibition of viral RNA replication
same,EC50,B.1.1.7 SARS-CoV-2; [8],21.8 µM
same,EC50,SARS-CoV-2 [1]; [9],23.7 µM
same,EC90,SARS-CoV-2 [1]; [10],116 µM
same,CC50,in vitro [2]; [11],> 100 µM
same,viral protein production (nucleocapsid over alpha tubulin),SARS-CoV-2 nucleocapsid,decrease in viral protein production
same,CC50,in vitro [3],> 100 µM
same,−1 PRF efficiency,[4],reduction in the −1 PRF efficiency
CN[C@@H]1[C@@H](O)[C@@H](O[C@@H]2[C@@H](O)[C@H](O[C@H]3O[C@H]([C@@H](C)O)[C@@H](O)[C@H](O)[C@H]3N)[C@@H](N)C[C@H]2N)OC[C@]1(C)O [Geneticin],EC50,Influenza A virus (H1N1); read-out: EC50 (95% CI),> 600 µM
same,antiviral activity against Influenza A virus (H1N1),Influenza A virus (H1N1); unrelated virus,lack of activity
same,protection from viral infection (apical viral RNA and plaque titre),SARS-CoV-2 [5],significant protection from viral infections
same,EC50,"HCoV-229e; Huh-7, read-out: EC50 (95% CI)",7.21 µM
same,EC90,"HCoV-229e; Huh-7, read-out: EC90 (95% CI)",23.9 µM
same,viral RNA replication,SARS-CoV-2 viral RNA,inhibition of viral RNA replication
same,EC50,B.1.1.7 SARS-CoV-2; [8],164 µM
same,EC50,SARS-CoV-2 [1]; [9],47.2 µM
same,EC50,"SARS-CoV-2 [1]; Severe acute respiratory syndrome coronavirus 2, Vero C1008, read-out: EC50 (95% CI), SARS-CoV-2 B.1.160, Vero-E6",31.6 µM
same,EC50,"SARS-CoV-2 [1]; Severe acute respiratory syndrome coronavirus 2, Vero C1008, read-out: EC50 (95% CI), SARS-CoV-2 B.1.177, Vero-E6",102 µM
same,EC50,"SARS-CoV-2 [1]; Severe acute respiratory syndrome coronavirus 2, Vero C1008, read-out: EC50 (95% CI), SARS-CoV-2 B.1.258, Vero-E6",42.4 µM
same,EC50,"SARS-CoV-2 [1]; Severe acute respiratory syndrome coronavirus 2, Vero C1008, read-out: EC50 (95% CI), SARS-CoV-2 B.1.617.2 (Delta), Vero-E6",32.8 µM
same,EC50,"SARS-CoV-2 [1]; Severe acute respiratory syndrome coronavirus 2, Vero C1008, read-out: EC50 (95% CI), SARS-CoV-2 BA.1 (Omicron), Vero-E6",25.7 µM
same,EC90,SARS-CoV-2 [1]; [10],245 µM
same,EC90,"SARS-CoV-2 [1]; Severe acute respiratory syndrome coronavirus 2, Vero C1008, read-out: EC90 (95% CI), SARS-CoV-2 B.1.160, Vero-E6",150 µM
same,EC90,"SARS-CoV-2 [1]; Severe acute respiratory syndrome coronavirus 2, Vero C1008, read-out: EC90 (95% CI), SARS-CoV-2 B.1.177, Vero-E6",407 µM
same,EC90,"SARS-CoV-2 [1]; Severe acute respiratory syndrome coronavirus 2, Vero C1008, read-out: EC90 (95% CI), SARS-CoV-2 B.1.258, Vero-E6",163 µM
same,EC90,"SARS-CoV-2 [1]; Severe acute respiratory syndrome coronavirus 2, Vero C1008, read-out: EC90 (95% CI), SARS-CoV-2 B.1.351 (Beta), Vero-E6",542 µM
same,EC90,"SARS-CoV-2 [1]; Severe acute respiratory syndrome coronavirus 2, Vero C1008, read-out: EC90 (95% CI), SARS-CoV-2 B.1.617.2 (Delta), Vero-E6",201 µM
same,EC90,"SARS-CoV-2 [1]; Severe acute respiratory syndrome coronavirus 2, Vero C1008, read-out: EC90 (95% CI), SARS-CoV-2 BA.1 (Omicron), Vero-E6",155 µM
same,CC50,in vitro [2]; [11],3950 µM
same,CC50,"in vitro [2]; CC50, row of SARS-CoV-2 B.1.351 (Beta)",3950 µM
same,CC50,"in vitro [2]; CC50, row of SARS-CoV-2 B.1.617.2 (Delta)",3950 µM
same,CC50,"in vitro [2]; CC50, row of SARS-CoV-2 BA.1 (Omicron)",934 µM
same,viability of the tissues,Mucilair tissues,without a decrease in viability
same,viral protein production (nucleocapsid over alpha tubulin),SARS-CoV-2 nucleocapsid,decrease in viral protein production
same,CC50,in vitro [6],5840 µM
same,CC50,in vitro [7],684 µM
same,GFP intensity in the infected cells,SARS-CoV-2 GFP,significantly reduced
same,number of infected (GFP positive) cells,SARS-CoV-2 GFP,marked reduction in the number of infected cells
same,CC50,in vitro [3],> 600 µM
same,protein synthesis in the cell,A549 cells,not impaired
same,−1 PRF efficiency,[4],reduction in the −1 PRF efficiency
Sotrovimab,EC50,B.1.1.7 SARS-CoV-2; read-out: EC50 (95% CI),0.0041 µM
same,CC50,Calu3 cells,> 0.68 µM
same,EC50,SARS-CoV-2 [1]; read-out: EC50 (95% CI),0.00013 µM
same,EC90,"SARS-CoV-2 [1]; read-out: EC90 (95% CI), SARS-CoV-2 B.1.1.7 (Alpha), Vero-E6",0.0042 µM
same,CC50,Vero-E6 cells,> 0.68 µM
